Test results reported in publication PMC10683027, “Discovery of tert-Butyl Ester Based 6-Diazo-5-oxo-L-norleucine Prodrugs for Enhanced Metabolic Stability and Tumor Delivery” (Journal of Medicinal Chemistry, 2023).
Entries after “also recorded” stand apart in the source; their conditions may differ.

What was measured:
[1] = tested on: glutamine and FGAR in EL4 tumors; test: Tumor target engagement: glutamine and FGAR quantification; format: in vivo, C57BL/6/CES1–/– mice; settings: P11 2.9 mg/kg SC
Description: Glutamine and FGAR were extracted from the tumor by protein precipitation. Per milligram of tissue, 5 μL of methanol containing 10 μmol/L deuterated N-acetyl aspartic acid and deuterated glutamate (internal standards) was added. Tissue samples were homogenized as described above and centrifuged (16000g, 5 min). Standard concentration curves of glutamine and FGAR in untreated plasma and tumor tissues were prepared (separately). For FGAR quantification, supernatants (2 μL) were injected and separated on an UltiMate 3000 UHPLC coupled to a Q Exactive Focus Orbitrap mass spectrometer. Samples were separated on an Agilent Eclipse Plus C18 RRHD (1.8 μm) 2.1 × 100 mm column. The mobile phase consisted of 8 mmol/L dimethylhexylamine (DMHA) + 0.005% formic acid in water, pH 9 (A), and 8 mmol/L DMHA in acetonitrile (B). […] Quantification was performed in full MS negative mode. Data were acquired and quantified with Xcalibur software.
Glutamine analysis took place on an Agilent 1290 UPLC coupled to an Agilent 6520 quadrupole time-of-flight mass spectrometer. Samples (2 μL) were injected and separated on a Waters Acquity UPLC BEH Amide 1.7 μm 2.1 × 100 mm HILIC column with a flow rate of 0.3 mL/min. The mobile phases consisted of A (water +0.1% formic acid) and B (acetonitrile + 0.1% formic acid). The mass spectrometer was run in positive ion mode. Standard curves for FGAR and glutamine were fitted using a blank subtraction method[47] to compensate for the presence of endogenous analyte levels in naïve matrixes.

[2] = tested on: P493B lymphoma cells suspended in human plasma; test: Human tumor cell to plasma partitioning assay; format: cell-based; settings: 20 μM; 1 h; human plasma fraction
Description: Human tumor cell to plasma partitioning assays were conducted as we have previously described.[25] Briefly, P493B lymphoma cells were grown at 37 °C, in a humidified atmosphere with 5% CO2. Cell confluency was estimated, and cells were harvested after achieving >80% confluency and centrifuged at 200g for 5 min at 25 °C. The obtained cell pellet was resuspended in 20 mL of Dulbecco’s phosphate-buffered saline (DPBS; Gibco, USA, cat. no. 14-190-144) maintained at 37 °C, and cell count was determined using an automated cell counter (Bio-Rad, USA). Cell suspension in DPBS was further centrifuged at 200g for 5 min at 25 °C, and the cell pellet was resuspended in human plasma (Innovative Research, USA) for partitioning assessment. The final cell density after resuspending in plasma was 10 million cells/mL of plasma. Partitioning assessment was performed in triplicate. Preincubated (37 °C for 5 min) cell–plasma suspension was spiked with DRP-104 or P11 at a final concentration of 20 μM and incubated at 37 °C for 1 h. Following incubation, a 1 mL aliquot of cell–plasma suspension was centrifuged at 1000g for 5 min at 4 °C, and supernatant plasma as well as the cell pellet was collected and stored at −80 °C until bioanalysis. Both plasma and cell pellet fractions were analyzed for intact prodrug and DON levels. […]

P493B lymphoma cells = test: Cell viability assay; format: cell-based; settings: Homo sapiens, 72 h, 72 h incubation
Description: Cell proliferation assays were performed as we have previously described.[19] Briefly, P493B lymphoma cells were plated in 96-well plates at a density of 20 000 cells/well in a final volume of 100 μL of growth media. P11, or DRP-104, was added to cells in half-log serial dilutions with a final concentration of 0.2% DMSO. Cells were allowed to proliferate for 72 h, and thereafter, 20 μL of CellTiter 96 AQueous (Promega no. 3580) was added per well and incubated for 2 h. Absorbance was measured at 490 nm. Relative cell viability was calculated from the difference between untreated cell wells (100%) and media well without cells (0%).

[3] = Chemical (aqueous) stability in buffer pH 7.4; format: physicochemical; settings: 10 μM; pH 7.4 PBS; 37 °C; 24 h; HRMS/LCMS
Description: The aqueous solubility was determined as previously reported with minor modifications.[48] Briefly, an excess amount of P11 or DRP-104 was added to PBS buffer (pH 7.4) and sonicated for 1 h at 37 °C to ensure saturation. After 1 h, the solution was filtered (0.45 μm PTFE), and the filtrate was diluted appropriately, and the concentration of each analyte was determined via LC–MS. Chemical stabilities of DRP-104 and P11 were done as previously described[18] with modifications. For chemical stability, prodrugs were spiked (10 μM) in buffer at pH 7.4 and incubated at 37 °C for 24 h. Prodrug disappearance was monitored using the developed HRMS methods.

[4] = Stability of P11 in human GI microsomes; format: in vitro ADME; settings: Figure 3A
[5] = Metabolic stability in mouse intestinal homogenate (GIh)
Description: Briefly, intestinal tissue was homogenized over ice via probe sonication with 1:9 tissue to potassium phosphate buffer (0.1 M) conditions. Prodrugs were spiked in plasma or tissue homogenate at 10 μM final concentration with 0.2% DMSO v/v and incubated in triplicate for 0 and 60 min time points. At each time point, 100 μL of the sample was precipitated with 300 μL of methanol containing internal standard (IS; losartan, 0.5 μM). Precipitated samples were vortexed (30 s) and centrifuged at 10000g for 10 min at 4 °C. After centrifugation, 100 μL of supernatant was aliquoted and submitted for analysis. Prodrug disappearance over time was monitored by liquid chromatography–mass spectrometry (LC–MS) through peak area ratios between the analyte and internal standard.
Chromatographic analysis was performed on a Dionex ultra-high-performance LC system coupled with a Q Exactive Focus Orbitrap mass spectrometer (Thermo Fisher Scientific Inc., Waltham, MA). Separation was achieved using an Agilent Eclipse Plus column (100 × 2.1 mm i.d.; maintained at 35 °C) packed with a 1.8 μm C18 stationary phase. The mobile phase used was composed of 0.1% formic acid in acetonitrile and 0.1% formic acid in water with gradient elution, starting with 2.5% organic phase (from 0 to 0.25 min) and linearly increasing to 99% (from 0.25 to 1.25 min) and re-equilibrating to 2.5% by 4 min. The total run time for each analyte was 5 min. Pumps were operated at a flow rate of 0.4 mL/min. The mass spectrometer controlled by Xcalibur software 4.0.27.13 (Thermo Scientific) was operated with an HESI ion source in positive ionization mode for all compounds. Compounds were identified in the full-scan mode with m/z ranging from 75 to 1125.

EC50 (P493B lymphoma cells): ~300 nM | stability in human GI microsomes [4]: confirmed | remaining at 1 h, 10 µM ([5]; CES1–/–, mouse, intestinal homogenate): 78 ± 2% | Intestinal homogenate ([5]; supplementary CSV, unit not given, matches Table 1 % remaining at 1 h, in %): 78 ± 2
Compound: CN(C)CC(=O)N[C@@H](Cc1ccccc1)C(=O)N[C@@H](CCC(=O)C=[N+]=[N-])C(=O)OC(C)(C)C [Prodrug P11, tert-Butyl (S)-6-Diazo-2-((S)-2-(2-(dimethylamino)acetamido)-3-phenylpropanamido)-5-oxohexanoate]
fold increase in tumor FGAR compared with vehicle ([1]; 30 min): 150 | fold rise in tumor glutamine compared with vehicle ([1]; 30 min): ~2 | tumor FGAR level ([1]; 30 min post dose (Tmax)): 1040 ± 179 nmol/g | tumor glutamine level ([1]; 30 min post dose (Tmax)): 1710 ± 173 nmol/g | stability and DON release in human plasma [2]: stable in human plasma with no DON release | chemical stability in buffer [3]: remained intact without any degradation; also recorded: no degradation
